Results: patent US20080274090A1, “REVERSAL OF INSULIN-DEPENDENT DIABETES BY ISLET-PRODUCING STEM CELLS, ISLET PROGENITOR CELLS AND ISLET-LIKE STRUCTURES” (UNIVERSITY OF FLORIDA RESEARCH FOUNDATION, INC., priority 2000, published 2008)
No end group written: not given here.

Tests used:
[1] = test system: IdIs derived from NOD/Uf pancreatic IPSCs; experiment: Insulin content and secretion of cultured IdIs upon glucose stimulation (insulin ELISA); assay type: cell-based, mouse; settings: for insulin release from IdIs by secretagogues: 10 mM arginine or 1 nM GLP-1 with 17.5 mM glucose, final 3 hours, lesser degree than nicotinamide
Procedure: To determine insulin secretion, 300 IdIs derived from NOD/Uf pancreatic IPSCs were cultured in vitro for 5 days in EHAA medium containing either 0.5% NMS or prediabetic NOD mouse serum with or without nicotinamide (1-10 mM). At the end of the culture period, cells were washed twice in Krebs ringer buffer (KRB) and stimulated with 17.5 mM glucose in KRB for 3 hours.
Three hundred IdIs (from culture flasks containing EHAA-0.5% NMS medium) were seeded in 24 well plates in 2 ml of EHAA medium containing 0.5% of NMS with or without nicotinamide (1-10 mM) for 5 days at 37° C. (5% CO2). For secretagogues, IdIs were cultured in EHAA-0.5% NMS medium for 5 days. Three hours prior to the end of the incubation period, medium was removed and IdIs gently washed twice with KRB. To stimulate insulin secretion, 17.5 mM glucose was added to wells in 1 ml of KRB, and incubated at 37° C. for 3 hrs. Following incubation, culture supernatants were stored at −70° C. until use. The IdIs in each well were then subjected to 1 ml of ice-cold acid-ethanol extraction overnight at 4° C., and cell-free extracts were neutralized with Tris base (400 mM final concentration) prior to storing at −70° C. until use. To test the effect of secretagogues, 10 mM arginine and 1 nM GLP-1 (Sigma Chemicals, St Louis, Mo.) were used for the final 3 hours incubation in KRB. The insulin in the supernatants and in the extract were determined using an insulin ELISA kit (Crystal Chemical Inc., Chicago, Ill.), with rat insulin standard for quantitation (supplied in the kit). Comparisons between groups were done using the one tailed t-test.

[2] = test system: IPSC line #7; experiment: Expression of development/differentiation factors in IPSC line #7 under nicotinamide; assay type: cell-based, mouse
Procedure: Nicotinamide has also been determined to enhance expression of various factors involved in the development/differentiation of the pancreas. […] A differentially regulated expression of Ins I and II was also apparent: Ins I was expressed at lower concentrations of nicotinamide (1-20 mM), while Ins II was expressed at 20-40 mM nicotinamide. Glucagon expression was visible only at a low dose of nicotinamide (<10 mM), while amylase expression was maintained at all doses (0-40 mM) (data not shown).

[3] = test system: human cell line (#H3); experiment: Differentiation of human IPSCs with nicotinamide and ECM (immunohistochemical staining); assay type: cell-based; settings: upon treatment with nicotinamide
From the text: Several lines were derived from human pancreatic ductal preparation provided by DRI (Miami, Fla.). […] Only about 2% of the cells express insulin (FIG. 16M). None of the cells express tyrosine hydroxylase (FIG. 16G).

Compound | insulin release from IdIs by secretagogues [1] | nicotinamide concentration at which Ins I was expressed ([2]; IPSC line #7) [mM] | nicotinamide concentration at which Ins II was expressed ([2]; IPSC line #7) [mM] | nicotinamide dose at which glucagon expression was visible ([2]; IPSC line #7, data not shown) [mM] | nicotinamide doses at which amylase expression was maintained ([2]; IPSC line #7, data not shown) [mM] | expression of development/differentiation factors ([2]; at different doses, data not shown) | cells expressing insulin [3] | cells expressing tyrosine hydroxylase [3] | expression of pancreatic products [3] | differentiation of IPCs to IdIs ([1]; in combination with epidermal growth factor or hepatocyte growth factor, data not shown) | insulin content of IdIs ([1]; nicotinamide 1-10 mM for 5 days, then 17.5 mM glucose 3 hours, versus glucose alone) | insulin secretion of IdIs ([1]; nicotinamide 1-10 mM for 5 days, then 17.5 mM glucose 3 hours, versus glucose alone, P<0.05)
N=C(N)NCCC[C@H](N)C(=O)O [arginine] | induced insulin release |  |  |  |  |  |  |  |  |  |  | 
NC(=O)c1cccnc1 [nicotinamide] |  | 1 to 20 | 20 to 40 | < 10 | 0 to 40 | enhancement of Isl-1, beta2/neuroD, IPF-1, Nkx 2.2 and 6.1 | about 2% | None | express glucagon (FIG. 16K), amylase (FIG. 16I), cytokeratin 7 (FIG. 16C), and cytokeratin 19 (FIG. 16E) | induced the differentiation of IPCs to IdIs | increased insulin content | significantly increased levels of insulin
glucagon like peptide-1 (HAEGTFTSDVSSYLEGQAAKEFIAWLVKGR; ends and bridges not checked; UniProt P01275 98-127, looked up) [GLP-1, secretagogue stimulating β cells through elevation of cAMP and the protein kinase A pathway] | induced insulin release |  |  |  |  |  |  |  |  |  |  | 
